Activity calls are given as the source filed them.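 How the source made its calls: active means IC50 against T. cruzi CYP51 below a set limit; inactive means the rest.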

From PubChem BioAssay AID1159558 (GlaxoSmithKline (GSK), 2015) come the findings set out here.

Sterol 14-alpha demethylase (Trypanosoma cruzi (strain CL Brener)), sequence (Q7Z1V1 whole entry, looked up): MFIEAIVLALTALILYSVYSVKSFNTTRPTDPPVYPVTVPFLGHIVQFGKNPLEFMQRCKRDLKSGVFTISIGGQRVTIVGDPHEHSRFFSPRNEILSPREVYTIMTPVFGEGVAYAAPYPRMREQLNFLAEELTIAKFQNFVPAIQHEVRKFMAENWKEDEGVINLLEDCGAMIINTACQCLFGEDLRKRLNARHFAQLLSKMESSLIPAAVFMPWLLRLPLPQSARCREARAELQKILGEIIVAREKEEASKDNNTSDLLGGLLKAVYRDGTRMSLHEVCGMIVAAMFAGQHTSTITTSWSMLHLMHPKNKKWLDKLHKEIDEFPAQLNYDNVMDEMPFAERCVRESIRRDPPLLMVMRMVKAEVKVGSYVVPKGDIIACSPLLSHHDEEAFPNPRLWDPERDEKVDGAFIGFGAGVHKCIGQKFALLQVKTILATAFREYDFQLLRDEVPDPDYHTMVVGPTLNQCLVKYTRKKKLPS

The assay has as its target Sterol 14-alpha demethylase (Trypanosoma cruzi (strain CL Brener)) (UniProt Q7Z1V1). Briefly: TcCYP51 inhibitors, dose response, mechanism study for T. cruzi antiparasitic project, biochemical, recombinant enzyme (AID 1159558).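 Further: enzyme in bacterial membranes with Anopheles gambiae CYP reductase and cytochrome b5 partners.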 Conditions: recombinant T. cruzi CYP51, BOMCC fluorescence.
As to `O=C(CN1CCC2(O)CCCCC2C1c1ccc2c(c1)OCO2)Nc1ccc(Cl)cc1Cl` (stereo unspecified), the IC50 – broadly, the concentration that inhibits the measured activity by half – is 13 µM.

As for `O=C(Cn1cnc([N+](=O)[O-])n1)Nc1ccc(Cl)cc1C(=O)c1ccccc1`, the IC50 is 10 µM.

Turning to `O=C(Nc1ccc(Br)c(Cl)c1)Nc1ccc2c(c1)OCO2`, the IC50 is > 100 µM (inactive).

For the compound `O=C(CCCNC(=O)c1ccc(Cl)cc1)Nc1nc(-c2ccccn2)cs1`, the IC50 was 3.2 µM.

For the compound `CCN(Cc1nc2ccc(C(=O)N3CCN(c4ncccn4)CC3)cc2[nH]1)C1CCCc2cccnc21` (stereo unspecified), the IC50 was 7.9 µM.

For the compound `Cc1[nH]n2c(=O)c3c(nc2c1-c1ccc(Cl)cc1)CCCC3`, the IC50 was > 100 µM (inactive).

For the compound `CCNc1cc(-c2ccccn2)nc(Nc2ccc(OC)cc2)n1`, the 50% inhibitory concentration (IC50) is 40 µM.

As to `O=S(=O)(c1ccccc1C(F)(F)F)N1CCN(Cc2ccc(-n3ccnc3)cc2)CC1`, the IC50 is 0.1 µM.

In the case of `CCCCc1cc(Nc2cc(C3CCC3)[nH]n2)nc(N2CCC2C(N)=O)n1` (stereo unspecified), the IC50 was > 100 µM (inactive).

Regarding `COc1ccc2ncc(Cl)c(CCN3CC[C@H](NCc4cc5c(cn4)OCS5)[C@@H](O)C3)c2n1`, the IC50 was 7.9 µM.

As for `Cn1ccnc1-c1nc(NCc2ccccc2Cl)cc(C2CC2)n1`, the IC50 was 40 µM.

For `CC(C)Nc1nccc(-c2c(-c3ccc(F)cc3)ncn2C2CCOCC2)n1`, the IC50 was > 100 µM (inactive).

Consider `CCCCN(C(=O)c1ccc(NC(=O)C(C)C)cc1)c1ccccc1`, for which the IC50 was 13 µM.

In the case of `Cc1c(CNC(=O)c2ccc(Cn3cc(Cl)c([N+](=O)[O-])n3)cc2)cnn1C`, the IC50 is > 100 µM (inactive).

As for `Cc1ncsc1CNc1cnc(-c2ccc3c(c2)OCCO3)c(-c2cnn(C)c2)c1`, the IC50 was 7.9 µM.

On to `COc1ccc(-c2csc(NC(=O)c3ccc([N+](=O)[O-])s3)n2)cc1`, for which the IC50 is > 100 µM (inactive).

As for `CCC(CC)C(=O)Nc1ccc(-c2nnc(-c3ccc(OC)cc3)o2)cc1`, the IC50 was 13 µM.

Take `Cc1ccc2onc(Nc3ccnc(Nc4cccc(S(C)(=O)=O)c4)n3)c2c1`: the IC50 was 40 µM.

Turning to `COCc1cnc2c(c1SCc1c(F)cccc1Cl)c(=O)n(C)c(=O)n2C`, the IC50 was 25 µM.

Regarding `O=c1cc(NCCCNCc2cc(C(F)(F)F)cs2)[nH]c2ccccc12`, the IC50 is 25 µM.

For `O=C(Nc1ccc(S(=O)(=O)N2CCCC2)cc1)c1ccc([N+](=O)[O-])s1`, the IC50 is > 100 µM (inactive).

As for `O=C(Nc1nc(-c2ccccn2)cs1)N1C[C@H]2C[C@@]2(c2ccccc2)C1`, the IC50 was 40 µM.

For `CC(c1cc(Cl)cc(Cl)c1)N(C)c1ncc2c(N)nc(N)nc2n1` (stereo unspecified), the IC50 is 40 µM.

In the case of `CC(C)COC(=O)Nc1ccc(N2CCC(CNS(=O)(=O)c3ccccc3)CC2)c(F)c1`, the half-inhibitory concentration (IC50) is 2 µM.

As to `CC(C(=O)Nc1ccccc1F)N(C)CC(=O)Nc1cccc2ccccc12` (stereo unspecified), the IC50 was 16 µM.

With `COc1ccc(C(=O)[C@H]2C[C@@H]2CN(Cc2ccccn2)Cc2ccccn2)cc1`, the IC50 is 40 µM.

Turning to `Clc1ccc(C(CC2CCCCO2)Cn2cncn2)c(Cl)c1` (stereo unspecified), the IC50 was 0.25 µM.

In the case of `COc1ccc(C2=NCC(CSc3nnc(-c4ccc5c(c4)OCO5)o3)S2)cc1` (stereo unspecified), the IC50 was 10 µM.

For `O=C(NCC(c1cccs1)N1CCOCC1)c1ccc([N+](=O)[O-])o1` (stereo unspecified), the half-maximal inhibitory concentration (IC50) is 10 µM.

Turning to `O=c1[nH]c(NCCCNCc2cc(Br)cc(Br)c2)nc2ccsc12`, the IC50 was 32 µM.

On to `O=C(CC1(O)C(=O)N(Cc2cccs2)c2ccc(Br)cc21)c1cccnc1` (stereo unspecified), for which the IC50 is 13 µM.

For the compound `Cc1ccnc(NS(=O)(=O)c2ccc(NC(=O)c3ccc([N+](=O)[O-])s3)cc2)n1`, the IC50 is 63 µM.

For `CCCn1c(NC(=O)Cc2ccc(Cl)cc2)nc2ccccc21`, the IC50 was > 100 µM (inactive).

Take `COc1cccc(C(=O)[C@H]2C[C@@H]2CN(Cc2cccnc2)Cc2cccnc2)c1`: the IC50 was 0.063 µM.

`CCOc1ccc(CC(=O)N2c3ccccc3CC2C(=O)NC)cc1` (stereo unspecified): the IC50 was > 100 µM (inactive).

`O=c1cc(NCCCNCc2c[nH]c3ccc(Br)cc23)[nH]c2ccccc12`: the IC50 was > 100 µM (inactive).
